Measurements taken from ChEMBL document CHEMBL1255438, “Comparative activities of TR-700 (torezolid) against staphylococcal blood isolates collected in Spain” (2010).
Values after ≈ are worked out from the molar mass of the structure shown. Active and inactive are the calls of the source. No cut-off for these calls is given here.

Assays:
Assay type in all cases: functional
[1] = Antimicrobial activity against oxacillin-susceptible coagulase-negative Staphylococcus aureus assessed as percent susceptible strain by CLSI method
Staphylococcus [2] = assay: Antimicrobial activity against linezolid-resistant coagulase-negative Staphylococcus assessed as percent susceptible strain by CLSI method
Staphylococcus [3] = assay: Antimicrobial activity against oxacillin-resistant coagulase-negative Staphylococcus aureus by CLSI method
Staphylococcus aureus [4] = assay: Antimicrobial activity against oxacillin-susceptible Staphylococcus aureus assessed as percent susceptible strain by CLSI method
Staphylococcus [5] = assay: Antimicrobial activity against linezolid-resistant coagulase-negative Staphylococcus by CLSI method
Staphylococcus aureus [6] = assay: Antimicrobial activity against oxacillin-resistant Staphylococcus aureus by CLSI method
Staphylococcus [7] = assay: Antimicrobial activity against oxacillin-susceptible coagulase-negative Staphylococcus aureus by CLSI method
Staphylococcus [8] = assay: Antimicrobial activity against Linezolid and methicillin-resistant coagulase-negative Staphylococcus by CLSI method
Staphylococcus [9] = assay: Antimicrobial activity against linezolid-susceptible coagulase-negative Staphylococcus by CLSI method
Staphylococcus aureus [10] = assay: Antimicrobial activity against linezolid-resistant Staphylococcus aureus assessed as percent susceptible strain by CLSI method
Staphylococcus aureus [11] = assay: Antimicrobial activity against linezolid-susceptible Staphylococcus aureus by CLSI method
Staphylococcus aureus [12] = assay: Antimicrobial activity against linezolid-susceptible Staphylococcus aureus assessed as percent susceptible strain by CLSI method
Staphylococcus aureus [13] = assay: Antimicrobial activity against oxacillin-resistant Staphylococcus aureus assessed as percent susceptible strain by CLSI method
Staphylococcus aureus [14] = assay: Antimicrobial activity against oxacillin-susceptible Staphylococcus aureus by CLSI method
Staphylococcus [15] = assay: Antimicrobial activity against linezolid-susceptible coagulase-negative Staphylococcus assessed as percent susceptible strain by CLSI method
Staphylococcus aureus [16] = assay: Antimicrobial activity against linezolid-resistant Staphylococcus aureus by CLSI method
Staphylococcus aureus [17] = assay: Antimicrobial activity against methicillin-resistant Staphylococcus aureus by CLSI method

Structure (SMILES) | Activity [1] | Activity (Staphylococcus [2]) | MIC50 (Staphylococcus [3]) | MIC90 (Staphylococcus [3]) | Activity (Staphylococcus aureus [4]) | MIC50 (Staphylococcus [5]) | MIC90 (Staphylococcus aureus [6]) | MIC50 (Staphylococcus [7]) | MIC90 (Staphylococcus [7]) | MIC50 (Staphylococcus [9]) | MIC90 (Staphylococcus [9]) | MIC90 (Staphylococcus aureus [11]) | Activity (Staphylococcus aureus [12]) | MIC50 (Staphylococcus aureus [14]) | MIC90 (Staphylococcus aureus [14]) | Activity (Staphylococcus [15]) | MIC50 (Staphylococcus aureus [16]) | also measured
CN[C@H](CC(C)C)C(=O)N[C@H]1C(=O)N[C@@H](CC(N)=O)C(=O)N[C@H]2C(=O)N[C@H]3C(=O)N[C@H](C(=O)N[C@H](C(=O)O)c4cc(O)cc(O)c4-c4cc3ccc4O)[C@H](O)c3ccc(c(Cl)c3)Oc3cc2cc(c3O[C@@H]2O[C@H](CO)[C@@H](O)[C@H](O)[C@H]2O[C@H]2C[C@](C)(N)[C@H](O)[C@H](C)O2)Oc2ccc(cc2Cl)[C@H]1O [VANCOMYCIN] | 100% | 100% | 2 µg/mL (≈ 1.38 µM) | 2 µg/mL (≈ 1.38 µM) | 100% | 2 µg/mL (≈ 1.38 µM) | 2 µg/mL (≈ 1.38 µM) | 2 µg/mL (≈ 1.38 µM) | 2 µg/mL (≈ 1.38 µM) | 2 µg/mL (≈ 1.38 µM) | 2 µg/mL (≈ 1.38 µM) | 1 µg/mL (≈ 0.69 µM) | 99.6% | 1 µg/mL (≈ 0.69 µM) | 1 µg/mL (≈ 0.69 µM) | 100% | 2 µg/mL (≈ 1.38 µM) | MIC50 (Staphylococcus aureus [6]): 1 µg/mL (≈ 0.69 µM); MIC (Staphylococcus [8]): 2 µg/mL (≈ 1.38 µM); Activity (Staphylococcus aureus [10]): 100%; MIC50 (Staphylococcus aureus [11]): 1 µg/mL (≈ 0.69 µM); Activity (Staphylococcus aureus [13]): 99.2%
CC(=O)N[C@@H]1[C@H](Oc2c3cc4cc2Oc2ccc(cc2Cl)[C@@H](O[C@@H]2O[C@@H](CO)[C@@H](O)[C@H](O)[C@@H]2NC(C)=O)[C@@H]2NC(=O)[C@H](NC(=O)[C@@H]4NC(=O)[C@H]4NC(=O)[C@@H](Cc5ccc(c(Cl)c5)O3)NC(=O)[C@H](N)c3ccc(O)c(c3)Oc3cc(O)cc4c3)c3ccc(O)c(c3)-c3c(O[C@H]4O[C@H](CO)[C@@H](O)[C@@H](O)[C@@H]4O)cc(O)cc3[C@@H](C(=O)O)NC2=O)O[C@@H](CO)[C@@H](O)[C@@H]1O | 100% | 80% | 2 µg/mL (≈ 1.13 µM) | 8 µg/mL (≈ 4.53 µM) | 100% | 4 µg/mL (≈ 2.26 µM) | 1 µg/mL (≈ 0.566 µM) | 2 µg/mL (≈ 1.13 µM) | 4 µg/mL (≈ 2.26 µM) | 2 µg/mL (≈ 1.13 µM) | 8 µg/mL (≈ 4.53 µM) | 1 µg/mL (≈ 0.566 µM) | 100% | ≤ 0.5 µg/mL | 1 µg/mL (≈ 0.566 µM) | 94.5% | 1 µg/mL (≈ 0.566 µM) | Activity (Staphylococcus aureus [17]): Active
